Results on two compounds are retold here after patent US12532888B2, “Methods and uses of a mixture comprising alpha-cypermethrin and dinotefuran for combating or controlling mosquitoes” (priority 2020, dated 2026).

This assay deals with yellow fever mosquitoes (Aedes aegypti). The assay is described as follows: whole plant or invertebrate. The settings on record: for Colby Expected: 3 days after exposure. The protocol:
Glass vials (20 mL scintillation) were treated with 445 μL of varying concentrations of α-cypermethrin dissolved in acetone, respectively dinotefuran or mixtures of α-cypermethrin and dinotefuran in the indicated ratios. Vials were turned on their sides and placed on an automated roller table. The vials were rolled (6 rpm) uncapped to allow an even coating of the treatment.
After rolling, vials were allowed to completely dry for at least an hour. Each treatment was replicated five times. Prior to exposure, yellow fever mosquitoes (Aedes aegypti) were incapacitated using a chill table. Approximately six mosquitoes were placed into each vial and were exposed to treatments at room temperature for exactly one hour. A small amount of CO2 was used to incapacitate the mosquitoes to facilitate removal from treatment. Insects were then transferred to 16 oz plastic holding containers. A cotton wick moistened with 10% sugar water was provided in each container. Holding containers were moved into an incubator with environmental conditions of 27° C. and 80% relative humidity. Wicks were rehydrated daily and mortality was assessed at 3 days after exposure (DAE).
Ataxia+mortality data were used to determine whether there was a synergistic effect in the combined use of dinotefuran and α-cypermethrin.
Abbott's correction for control mortality and the Colby method for testing synergy were used to analyze combination data. […] Colby's expected mortality per combination observation=% mortality (A)+% mortality (B)−(% mortality (A)×% mortality (B))/100. Synergy ratio=% observed mortality/% Colby expected mortality.
Additive interactions have synergy ratios equal to 1, antagonistic interactions have synergy ratios of less than 1, and synergistic interactions have synergy ratios of greater than 1.

SMILES strings stand for the structures.

Turning to `CC1(C)C(C=C(Cl)Cl)C1C(=O)OC(C#N)c1cccc(Oc2ccccc2)c1` (racemic) [Alpha-cypermethrin, racemate comprising (R)-α-cyano-3-phenoxybenzyl (1S, 3S)-3-(2,2-dichlorovinyl)-2,2-dimethylcyclopropanecarboxylate; (S)-α-cyano-3-phenoxybenzyl (1R, 3R)-3-(2,2-dichlorovinyl)-2,2-dimethylcyclopropanecarboxylate], the mortality at 0.00732 mg/m2 (Aedes aegypti, 72 h) amounted to 13.9%. Further, the “Colby Expected” value (Table 1, expected mortality of the combination 0.00732 + 0.0732 mg/m^2 by Colby's formula) is reported as 13.9% and the “Colby Expected” value (Table 2, expected mortality of the combination 0.00732 + 7.32 mg/m^2 by Colby's formula) is on record as 13.9%.

Take `CNC(=N[N+](=O)[O-])NCC1CCOC1` (racemic) [Dinotefuran, (RS)-1-methyl-2-nitro-3-(tetrahydro-3-furylmethyl) guanidine]: where the note is “Aedes aegypti, 72 h”, the mortality at 0.0732 mg/m2 came to 0% and the mortality at 7.32 mg/m2 was determined as 0%.

For orientation: mortality means the percentage killed.
